Experimental data from patent publication US8207156B2, “Substituted pyrazoline compounds, their preparation and use as medicaments” (Laboratorios Del Dr. Esteve, S.A., priority 2005, dated 2012).
Counter-ions that a name gives are not always drawn.

Biological target: T1, CB1 receptor (UniProt P20272)
T1 construct: other: compound at 10^−7 M; radioligand [3H]-CP55940; other: compound at 10^−8 M
Assay: In-vitro determination of affinity to CB1/CB2-receptors (radioligand [3H]-CP55940 binding)
Conditions: for Inhibition [%], 10^−7 M: compound at 10^−7 M; for Inhibition [%], 10^−8 M: compound at 10^−8 M
Description: The in-vitro determination of the affinity of the inventive substituted pyrazoline compounds to CB1/CB2-Rezeptors is carried out as described in the publication of Ruth A. Ross, Heather C. Brockie et al., “Agonist-inverse agonist characterization at CB1 and CB2 cannabinoid receptors of L-759633, L759656 and AM630”, British Journal of Pharmacology, 126, 665-672, (1999), whereby the transfected human CB1 and CB2 receptors of Receptor Biology, Inc. are used. The radioligand used for both receptors is [^3H]-CP55940. The respective parts of the description is hereby incorporated by reference and forms part of the present disclosure.
Binding affinity to CB1 receptor was evaluated according to a modification of the method described by Govaerts et al., Eur J Pharmac Sci 23, 233-243 (2004). The respective parts of the description is hereby incorporated by reference and forms part of the present disclosure.
Briefly, cerebellum from male wistar rats (250-300 g) were carefully dissected on ice and homogenates were prepared with Potter-Helveheim in a cold 50 mM Tris-HCl solution containing 5 mM MgCl2, 1 mM EDTA and 0.25 M sucrose, pH 7.4. The suspension was centrifuged at 1,000×g for 5 minutes. The supernatants were collected and centrifuged 50,000×g for 15 minutes. The resulting pellets were then resuspended in Tris-HCl buffer without sucrose, homogenized and incubated for 15 min at 37° C. in an orbital shaker bath and centrifuged again at 50,000×g for 15 min. Pellets were weighted, resuspended in Tris-HCl buffer without sucrose, homogenized with Ultraturrax at 13,500 rpm for 3×5 seconds and alicuoted in 0.9 ml volumes in Eppendorf tubes. Alicuotes were centrifuged at 20,800×g for 5 minutes, supernatants discarded and pellets were frozen at −80° C. until use. Total protein concentration was determined using the Bio-Rad Lowry method based kit. Competitive binding experiments were performed in presence of 1 nM [^3H]-CP 55,940 in siliconized glass tubes containing 100 μg protein/tube resuspended in 1 ml final volume of 50 mM Tris-HCl, 5 mM MgCl2, 1 mM EDTA, 0.5% (w/v) bovine serum albumin, pH 7.4. Compounds were present at various concentrations and the non specific binding was determined in the presence of 10 μM HU-210. After 1 hour incubation at 30° C., the suspension was rapidly filtered through 0.5% PEI pre-treated GF/B fiber filters on a 96-well harvester and washed 3 times with 3 ml ice-cold binding buffer without bovine serum albumin. Radioactivity on filters was measured with Wallac Winspectral 1414 counter by liquid scintillation in 6 ml Ecoscint H (National Diagnostics, U.K.). Assays were made in triplicates.
Binding data were analyzed by non-linear regression with the software GraphPad Prism Version 3.03.

SMILES | Inhibition [%], 10^−7 M [%] | Inhibition [%], 10^−8 M [%]
CCCCNC(=O)C1=NN(c2ccc(Cl)cc2Cl)C(c2ccc(Cl)cc2)C1 (centres unmarked) [Example 72, 5-(4-Chloro-phenyl)-1-(2,4-dichloro-phenyl)-4,5-dihydro-1H-pyrazole-3-carboxylic acid butylamide] | 19.6 | −10.2
O=C(NCCC1CCCC1)C1=NN(c2ccc(Cl)cc2Cl)C(c2ccc(Cl)cc2)C1 (centres unmarked) [Example 87, 5-(4-Chloro-phenyl)-1-(2,4-dichloro-phenyl)-4,5-dihydro-1H-pyrazole-3-carboxylic acid (2-cyclopentyl-ethyl)-amide] | 15.2 | −2.4
COc1ccc(C2CC(C(=O)NC3CCCCCC3)=NN2c2ccc(Cl)cc2Cl)cc1 (centres unmarked) [Example 132, 5-(4-methoxyphenyl)-1-(2,4-dichloro-phenyl)-4,5-dihydro-1H-pyrazole-3-carboxylic acid cycloheptylamide] | 37.8 | 18.2
Cl.O=C(NN1CCCCCCC1)C1=NN(c2ccc(Cl)cc2Cl)C(c2ccc(Cl)cc2)C1 (centres unmarked) [Example 145, 5-(4-Chloro-phenyl)-1-(2,4-dichloro-phenyl)-4,5-dihydro-1H-pyrazole-3-carboxylic acid azocan-1-ylamide hydrochloride] | 57.6 | 12.3
Cl.O=C(NN1CCCCCCC1)C1=NN(c2ccc(Cl)cc2Cl)[C@@H](c2ccc(Cl)cc2)C1 [Example 176, (R)-5-(4-Chloro-phenyl)-1-(2,4-dichloro-phenyl)-4,5-dihydro-1H-pyrazole-3-carboxylic acid azocan-1-ylamide hydrochloride] | 71.3 | 29.5
Cl.O=C(NN1CCCCC1)C1=NN(c2ccc(Cl)cc2Cl)C(c2ccc(O)cc2)C1 (centres unmarked) [Example 172, 1-(2,4-Dichloro-phenyl)-5-(4-hydroxy-phenyl)-4,5-dihydro-1H-pyrazole-3-carboxylic acid piperidin-1-ylamide hydrochloride] | 1.4 | 5.6
Cl.O=C(NN1CCc2ccccc21)C1=NN(c2ccc(Cl)cc2Cl)C(c2ccc(F)cc2)C1 (centres unmarked) [Example 179, 1-(2,4-Dichloro-phenyl)-5-(4-fluoro-phenyl)-4,5-dihydro-1H-pyrazole-3-carboxylic acid (2,3-dihydro-indol-1-yl)-amide hydrochloride] | 33.9 | 11.5
COC[C@H]1CCCN1NC(=O)C1=NN(c2ccc(Cl)cc2Cl)C(c2ccc(Cl)cc2)C1 (some centres unmarked) [Example 13, 5-(4-Chloro-phenyl)-1-(2,4-dichloro-phenyl)-4,5-dihydro-1H-pyrazole-3-carboxylic acid (2-methoxymethyl-pyrrolidin-1-yl)-amide] | 31.8 | 14.3
Cl.O=C(NN1CCCCCCC1)C1=NN(c2ccc(Cl)cc2Cl)[C@H](c2ccc(Cl)cc2)C1 [Example 177, (S)-5-(4-Chloro-phenyl)-1-(2,4-dichloro-phenyl)-4,5-dihydro-1H-pyrazole-3-carboxylic acid azocan-1-ylamide hydrochloride] | 22.2 | −5.4

Second part, the compound after the results:

Inhibition [%], 10^−7 M [%] | Inhibition [%], 10^−8 M [%] | SMILES
5.8 | 4.7 | CN1CCN(C(=O)C2=NN(c3ccc(Cl)cc3Cl)C(c3ccc(Cl)cc3)C2)CC1.Cl (centres unmarked) [Example 195, [5-(4-Chloro-phenyl)-1-(2,4-dichloro-phenyl)-4,5-dihydro-1H-pyrazole-3-yl]-(4-methyl-piperazin-1-yl)-methanone hydrochloride]
31.7 | 18.8 | Cl.O=C(NN1CCc2ccccc21)C1=NN(c2ccc(Cl)cc2Cl)[C@H](c2ccc(Cl)cc2)C1 [Example 182, (S)-5-(4-Chloro-phenyl)-1-(2,4-dichloro-phenyl)-4,5-dihydro-1H-pyrazole-3-carboxylic acid (2,3-dihydro-indol-1-yl)-amide hydrochloride]
34.1 | −11.6 | O=C(NN1CCCCCC1)C1=NN(c2ccc(Cl)cc2Cl)[C@H](c2ccc(Cl)cc2)C1 [Example 185, (S)-5-(4-Chloro-phenyl)-1-(2,4-dichloro-phenyl)-4,5-dihydro-1H-pyrazole-3-carboxylic acid azepan-1-ylamide]
−18.9 | 15.7 | CN(C)CCCNC(=O)C1=NN(c2ccc(Cl)cc2Cl)C(c2ccc(Cl)cc2)C1 (centres unmarked) [Example 73, 5-(4-Chloro-phenyl)-1-(2,4-dichloro-phenyl)-4,5-dihydro-1H-pyrazole-3-carboxylic acid (3-dimethylamino-propyl)-amide]
24.8 | 5.7 | O=C(NN1CC2CCCC2C1)C1=NN(c2ccc(Cl)cc2Cl)[C@H](c2ccc(Cl)cc2)C1 (stereo partly drawn) [Example 184, (S)-5-(4-Chloro-phenyl)-1-(2,4-dichloro-phenyl)-4,5-dihydro-1H-pyrazole-3-carboxylic acid (hexahydro-cyclopenta[c]pyrrol-2-yl)-amide hydrochloride]
80.3 | 56.1 | COc1ccc(C2CC(C(=O)NN3CCCCCCC3)=NN2c2ccc(Cl)cc2Cl)cc1 (centres unmarked) [Example 148, 5-(4-methoxy-phenyl)-1-(2,4-dichloro-phenyl)-4,5-dihydro-1H-pyrazole-3-carboxylic acid azocan-1-ylamide]
9.3 | 4.7 | O=C(O)C1=NN(c2ccc(Cl)cc2Cl)C(c2ccc(O)cc2)C1 (centres unmarked) [Example 180, 1-(2,4-Dichloro-phenyl)-5-(4-hydroxy-phenyl)-4,5-dihydro-1H-pyrazole-3-carboxylic acid]
31.9 | 3.2 | Cl.O=C(NN1CCCCCC1)C1=NN(c2ccc(Cl)cc2Cl)[C@H](c2ccc(Cl)cc2)C1 [Example 183, (S)-5-(4-Chloro-phenyl)-1-(2,4-dichloro-phenyl)-4,5-dihydro-1H-pyrazole-3-carboxylic acid azepan-1-ylamide hydrochloride]
28.1 | 3.2 | O=C(NC1CCCCCC1)C1=NN(c2ccc(Cl)cc2Cl)[C@H](c2ccc(Cl)cc2)C1 [Example 186, (S)-5-(4-Chloro-phenyl)-1-(2,4-dichloro-phenyl)-4,5-dihydro-1H-pyrazole-3-carboxylic acid cycloheptylamide]
7.8 | 7.4 | COc1ccc(C2CC(C(=O)O)=NN2c2ccc(Cl)cc2Cl)cc1 (centres unmarked) [Example 127, 1-(2,4-Dichloro-phenyl)-5-(4-methoxy-phenyl)-4,5-dihydro-1H-pyrazole-3-carboxylic acid]
